Patent US11040981B2, “Pyrrolotriazine compounds and methods of inhibiting TAM kinases” (Syros Pharmaceuticals, Inc., priority 2017, dated 2021)

Key:
FLT3 = target: T1, FLT3 (Homo sapiens, UniProt P36888); assay: TR-FRET kinase activity assay, FLT3; format: biochemical; details: ATP at Km, 60 minutes
T1 sequence (P36888 27-993): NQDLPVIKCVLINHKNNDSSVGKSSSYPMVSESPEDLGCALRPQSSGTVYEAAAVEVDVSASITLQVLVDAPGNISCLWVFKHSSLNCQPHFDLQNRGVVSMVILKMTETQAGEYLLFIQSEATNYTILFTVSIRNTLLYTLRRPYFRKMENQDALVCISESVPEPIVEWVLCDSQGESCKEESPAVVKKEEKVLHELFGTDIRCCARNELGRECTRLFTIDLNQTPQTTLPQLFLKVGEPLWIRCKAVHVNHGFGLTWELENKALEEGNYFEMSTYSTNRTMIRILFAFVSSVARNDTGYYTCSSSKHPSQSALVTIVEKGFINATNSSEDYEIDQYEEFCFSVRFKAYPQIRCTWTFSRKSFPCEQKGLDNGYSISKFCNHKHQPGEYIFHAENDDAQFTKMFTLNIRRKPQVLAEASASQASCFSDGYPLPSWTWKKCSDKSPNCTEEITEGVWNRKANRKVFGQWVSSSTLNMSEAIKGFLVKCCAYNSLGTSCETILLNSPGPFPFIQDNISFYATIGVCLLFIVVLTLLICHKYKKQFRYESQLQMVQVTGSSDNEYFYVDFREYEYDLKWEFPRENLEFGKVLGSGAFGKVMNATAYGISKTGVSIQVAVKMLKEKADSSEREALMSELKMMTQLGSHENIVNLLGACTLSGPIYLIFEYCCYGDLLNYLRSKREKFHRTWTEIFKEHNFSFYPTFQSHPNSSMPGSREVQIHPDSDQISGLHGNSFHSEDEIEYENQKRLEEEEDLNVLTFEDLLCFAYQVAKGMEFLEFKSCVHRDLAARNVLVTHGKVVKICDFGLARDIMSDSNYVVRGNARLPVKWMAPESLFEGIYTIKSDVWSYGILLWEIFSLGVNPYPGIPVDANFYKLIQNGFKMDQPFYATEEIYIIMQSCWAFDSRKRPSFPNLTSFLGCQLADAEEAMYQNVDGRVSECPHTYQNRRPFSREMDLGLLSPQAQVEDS
Method in brief: (§1)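 Compounds were tested against each kinase with ATP set at its own Km and a labelled tyrosine peptide substrate. Following one hour at room temperature in buffer containing 10 mM MgCl2 and 1 mM DTT, phosphorylated product was detected by Europium antibody TR-FRET after EDTA quench, and IC50 values were calculated.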

TYRO3 = target: T2, TYRO3 (Homo sapiens, UniProt Q06418); assay: TR-FRET kinase activity assay, TYRO3; format: biochemical; details: ATP at Km, 60 minutes
T2 sequence (Q06418 41-890): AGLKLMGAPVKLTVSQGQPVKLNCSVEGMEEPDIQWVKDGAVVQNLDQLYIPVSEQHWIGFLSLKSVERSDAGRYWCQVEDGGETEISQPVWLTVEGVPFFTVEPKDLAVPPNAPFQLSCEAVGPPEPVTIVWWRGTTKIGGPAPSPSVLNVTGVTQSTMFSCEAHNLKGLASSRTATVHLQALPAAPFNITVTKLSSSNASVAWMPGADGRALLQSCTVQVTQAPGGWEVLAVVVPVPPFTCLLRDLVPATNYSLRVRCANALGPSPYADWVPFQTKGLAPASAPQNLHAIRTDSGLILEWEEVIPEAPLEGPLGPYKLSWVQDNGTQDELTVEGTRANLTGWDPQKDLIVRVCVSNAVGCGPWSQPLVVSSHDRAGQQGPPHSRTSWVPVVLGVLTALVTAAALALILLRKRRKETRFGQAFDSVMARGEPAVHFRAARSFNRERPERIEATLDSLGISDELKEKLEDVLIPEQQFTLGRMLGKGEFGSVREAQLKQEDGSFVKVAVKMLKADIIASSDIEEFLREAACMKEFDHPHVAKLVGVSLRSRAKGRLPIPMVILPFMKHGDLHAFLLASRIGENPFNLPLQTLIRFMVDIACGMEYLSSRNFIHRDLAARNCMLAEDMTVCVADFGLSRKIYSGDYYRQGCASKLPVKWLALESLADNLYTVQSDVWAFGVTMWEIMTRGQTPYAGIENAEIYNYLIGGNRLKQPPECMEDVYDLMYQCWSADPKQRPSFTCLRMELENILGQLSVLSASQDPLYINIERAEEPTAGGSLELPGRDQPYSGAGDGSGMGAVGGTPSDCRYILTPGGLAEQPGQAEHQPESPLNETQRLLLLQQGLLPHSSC
Method in brief: as §1

IC50 (FLT3) [nM] | IC50 (TYRO3) [nM] | Compound
100 to 1000 | ≤ 100 | COC[C@H](C)Nc1ncc2c(-c3ccnc(N4CCN(S(C)(=O)=O)CC4)c3)cc([C@H]3CC[C@H](O)CC3)n2n1 [Compound 338]
100 to 1000 | ≤ 100 | COC[C@H](C)Nc1ncc2c(-c3ccnc(N4CCNC(=O)C4)c3)cc([C@H]3CC[C@H](O)CC3)n2n1 [Compound 340]
100 to 1000 | ≤ 100 | COC[C@H](C)Nc1ncc2c(-c3ccnc(OC4CCCN(C)C4)c3)cc([C@H]3CC[C@H](O)CC3)n2n1 (some centres unmarked) [Compound 341]
100 to 1000 | ≤ 100 | COC[C@H](C)Nc1ncc2c(-c3ccnc(OC4CCN(C)CC4)c3)cc([C@H]3CC[C@H](O)CC3)n2n1 [Compound 342]
100 to 1000 | ≤ 100 | COC[C@H](C)Nc1ncc2c(-c3ccnc(N4CCN(C(C)=O)CC4)c3)cc([C@H]3CC[C@H](O)CC3)n2n1 [Compound 344]

The remaining lines, values behind:

Compound | IC50 (FLT3) [nM] | IC50 (TYRO3) [nM]
CNS(=O)(=O)c1ccc(-c2cc([C@H]3CC[C@H](O)CC3)n3nc(N[C@@H](C)COC)ncc23)cn1 [Compound 336] | 100 to 1000 | ≤ 100
COC[C@H](C)Nc1ncc2c(-c3ccnc(NC(C)C)c3)cc([C@H]3CC[C@H](O)CC3)n2n1 [Compound 337] | 100 to 1000 | ≤ 100
COC[C@H](C)Nc1ncc2c(-c3ccnc(N4CCCC4)c3)cc([C@H]3CC[C@H](O)CC3)n2n1 [Compound 339] | 100 to 1000 | ≤ 100
COC[C@H](C)Nc1ncc2c(-c3ccnc(OC(C)C)c3)cc([C@H]3CC[C@H](O)CC3)n2n1 [Compound 343] | 1000 to 10000 | ≤ 100
COCCOc1cc(-c2cc([C@H]3CC[C@H](O)CC3)n3nc(N[C@@H](C)COC)ncc23)ccn1 [Compound 345] | 1000 to 10000 | ≤ 100
